# Source: patent publication US12103926B2, “Compounds for treating huntington's disease” (PTC THERAPEUTICS, INC., priority 2018, dated 2024)
# System: Endogenous Huntingtin Protein
# Assay: Endogenous Huntingtin Protein Assay (ELISA-based MSD electrochemiluminescence assay)
# Format: cell-based
# Details: MW1 (expanded polyglutamine) or MAB2166 capture antibody; lysates
# Method: Compounds of Formula (I) were tested using the Meso Scale Discovery (MSD) Assay provided in International Application No. PCT/US2016/066042, filed on Dec. 11, 2016 and claiming priority to United States Provisional Application U.S. 62/265,652 filed on Dec. 10, 2015, the entire contents of which are incorporated herein by reference.
# The Endogenous Huntingtin Protein assay used in Example 1 was developed using the ELISA-based MSD electrochemiluminescence assay platform.
# Endogenous Huntingtin Protein Assay
# Meso Scale Discovery (MSD) 96-well or 384-well plates were coated overnight at 4° C. with MW1 (expanded polyglutamine) or MAB2166 monoclonal antibody (for capture) at a concentration of 1 μg/mL in PBS (30 μL per well). Plates were then washed three times with 300 μL wash buffer (0.05% Tween-20 in PBS) and blocked (100 μL blocking buffer; 5% BSA in PBS) for 4-5 hours at room temperature with rotational shaking and then washed three times with wash buffer.
# Samples (25 μL) were transferred to the antibody-coated MSD plate and incubated overnight at 4° C. After removal of the lysates, the plate was washed three times with wash buffer, and 25 μL of #5656S (Cell signaling; rabbit monoclonal) secondary antibody (diluted to 0.25 μg/mL in 0.05% Tween-20 in blocking buffer) was added to each well and incubated with shaking for 1 Hour at room temperature. Following incubation with the secondary antibody, the wells were rinsed with wash buffer after which 25 μL of goat anti-rabbit SULFO TAG secondary detection antibody (required aspect of the MSD system) (diluted to 0.25 μg/mL in 0.05% Tween-20 in blocking buffer) was added to each well and incubated with shaking for 1 hour at room temperature. After rinsing three times with wash buffer, 150 μL of read buffer T with surfactant (MSD) were added to each empty well, and the plate was imaged on a SI 6000 imager (MSD) according to manufacturers' instructions provided for 96- or 384-well plates.
row,Compound,IC50
1,"Oc1cc(-c2cn[nH]c2)ccc1-c1cnc(N2CC3CNCC3C2)cn1 (stereo not drawn) [Cpd 6, 2-[5-(hexahydropyrrolo[3,4-c]pyrrol-2(1H)-yl)pyrazin-2-yl]-5-(1H-pyrazol-4-yl)phenol]",1000 to 3000 nM
2,"CC(C)(C)NC1CCN(c2cnc(-c3cc(F)c(-c4cn[nH]c4)cc3F)cn2)C1 (stereo not drawn) [Cpd 64, N-tert-butyl-1-{5-[2,5-difluoro-4-(1H-pyrazol-4-yl)phenyl]pyrazin-2-yl}pyrrolidin-3-amine]",< 100 nM
3,"CN(c1cnc(-c2ccc(-c3cn[nH]c3)cc2O)cn1)C1CC(C)(C)NC(C)(C)C1 [Cpd 26, 2-{5-[methyl(2,2,6,6-tetramethylpiperidin-4-yl)amino]pyrazin-2-yl}-5-(1H-pyrazol-4-yl)phenol]",< 100 nM
4,"CC1(C)CC(Oc2cnc(-c3ccc(-c4cn[nH]c4)c(F)c3F)cn2)CC(C)(C)N1 [Cpd 10, 2-[2,3-difluoro-4-(1H-pyrazol-4-yl)phenyl]-5-[(2,2,6,6-tetramethylpiperidin-4-yl)oxy]pyrazine]",1000 to 3000 nM
5,"CN(c1cnc(-c2ccc(-c3cn[nH]c3)cc2O)cn1)C1CC2(CCCCC2)NC2(CCCCC2)C1 (stereo not drawn) [Cpd 3, 2-{5-[(7-azadispiro[5.1.5^8.3^6]hexadecan-15-yl)(methyl)amino]pyrazin-2-yl}-5-(1H-pyrazol-4-yl)phenol]",1000 to 3000 nM
6,"CC1(C)CC(Nc2cnc(-c3ccc(-c4cccnc4)cc3O)cn2)CC(C)(C)N1 [Cpd 45, 5-(pyridin-3-yl)-2-{5-[(2,2,6,6-tetramethylpiperidin-4-yl)amino]pyrazin-2-yl}phenol]",500 to 1000 nM
7,"CC1(C)CC(Nc2cnc(-c3ccc(-c4ccc5nccn5n4)cc3O)cn2)CC(C)(C)N1 [Cpd 56, 5-(imidazo[1,2-b]pyridazin-6-yl)-2-{5-[(2,2,6,6-tetramethylpiperidin-4-yl)amino]pyrazin-2-yl}phenol]",< 100 nM
8,"[2H]C([2H])([2H])n1cc(-c2ccc(-c3cnc(N(C)C4CC(C)(C)NC(C)(C)C4)cn3)c(O)c2)cn1 [Cpd 28, 5-[1-(^2H3)methyl-1H-pyrazo1-4-yl]-2-{5-[methyl(2,2,6,6-tetramethylpiperidin-4-yl)amino]pyrazin-2-yl}phenol]",500 to 1000 nM
9,"CN(c1cnc(-c2ccc(-c3ccnc(O)c3)cc2O)cn1)C1CC(C)(C)NC(C)(C)C1 [Cpd 1, 4-(3-hydroxy-4-{5-[methyl(2,2,6,6-tetramethylpiperidin-4-yl)amino]pyrazin-2-yl}phenyl)pyridin-2-ol]",< 100 nM
10,"CN(c1cnc(-c2cc(F)c(-c3cn[nH]c3)c(F)c2)cn1)C1CC(C)(C)NC(C)(C)C1 [Cpd 17, 5-[3,5-difluoro-4-(1H-pyrazol-4-yl)phenyl]-N-methyl-N-(2,2,6,6-tetramethylpiperidin-4-yl)pyrazin-2-amine]",100 to 500 nM
11,"CC1(C)CC(Oc2cnc(-c3ccc(-c4cn[nH]c4)cc3O)cn2)CC(C)(C)N1 [Cpd 2, 5-(1H-pyrazol-4-yl)-2-{5-[(2,2,6,6-tetramethylpiperidin-4-yl)oxy]pyrazin-2-yl}phenol]",500 to 1000 nM
12,"CN(c1cnc(-c2cc(Cl)c(-c3cn[nH]c3)cc2Cl)cn1)C1CC(C)(C)NC(C)(C)C1 [Cpd 4, 5-[2,5-dichloro-4-(1H-pyrazol-4-yl)phenyl]-N-methyl-N-(2,2,6,6-tetramethylpiperidin-4-yl)pyrazin-2-amine]",1000 to 3000 nM
13,"[2H]C([2H])([2H])n1cc(-c2ccc(-c3cnc(N4CCC(NC(C)(C)C)C4)cn3)c(O)c2)cn1 (stereo not drawn) [Cpd 60, 2-{5-[3-(tert-butylamino)pyrrolidin-1-yl]pyrazin-2-yl}-5-[1-(^2H3)methyl-1H-pyrazol-4-yl]phenol]",< 100 nM
14,"CN(c1cnc(-c2ccc(-c3cn[nH]c3)c(F)c2F)cn1)C1CC(C)(C)NC(C)(C)C1 [Cpd 13, 5-[2,3-difluoro-4-(1H-pyrazol-4-yl)phenyl]-N-methyl-N-(2,2,6,6-tetramethylpiperidin-4-yl)pyrazin-2-amine]",< 100 nM
15,"CN(c1cnc(-c2ccc(-c3cnn(C)c3)cc2O)cn1)C1CC(C)(C)NC(C)(C)C1 [Cpd 27, 5-(1-methyl-1H-pyrazol-4-yl)-2-{5-[methyl(2,2,6,6-tetramethylpiperidin-4-yl)amino]pyrazin-2-yl} phenol]",100 to 500 nM
16,"CN(c1cnc(-c2ccc(-n3ccnc3)cc2O)cn1)C1CC(C)(C)NC(C)(C)C1 [Cpd 5, 5-(1H-imidazol-1-yl)-2-{5-[methyl(2,2,6,6-tetramethylpiperidin-4-yl)amino]pyrazin-2-yl}phenol]",500 to 1000 nM
17,"CN(c1cnc(-c2ccc(-n3ccc(N)n3)cc2O)cn1)C1CC(C)(C)NC(C)(C)C1 [Cpd 14, 5-(3-amino-1H-pyrazol-1-yl)-2-{5-[methyl(2,2,6,6-tetramethylpiperidin-4-yl)amino]pyrazin-2-yl}phenol]",1000 to 3000 nM

row,Compound,IC50
1,"CN(c1cnc(-c2ccc(-n3cccn3)cc2O)cn1)C1CC(C)(C)NC(C)(C)C1 [Cpd 19, 2-{5-[methyl(2,2,6,6-tetramethylpiperidin-4-yl)amino]pyrazin-2-yl}-5-(1H-pyrazol-1-yl)phenol]",1000 to 3000 nM
2,"Cc1ncn(-c2cc(F)c(-c3cnc(N(C)C4CC(C)(C)NC(C)(C)C4)cn3)cc2F)n1 [Cpd 42, 5-[2,5-difluoro-4-(3-methyl-1H-1,2,4-triazol-1-yl)phenyl]-N-methyl-N-(2,2,6,6-tetramethylpiperidin-4-yl)pyrazin-2-amine]",100 to 500 nM
3,"CC1(C)CC(Nc2cnc(-c3ccc(-c4cn[nH]c4F)cc3O)cn2)CC(C)(C)N1 [Cpd 57, 5-(5-fluoro-1H-pyrazol-4-yl)-2-{5-[(2,2,6,6-tetramethylpiperidin-4-yl)amino]pyrazin-2-yl}phenol]",< 100 nM
4,"CN(c1cnc(-c2cc(C#N)c(-c3cn[nH]c3)cc2F)cn1)C1CC(C)(C)NC(C)(C)C1 [Cpd 24, 4-fluoro-5-{5-[methyl(2,2,6,6-tetramethylpiperidin-4-yl)amino]pyrazin-2-yl}-2-(1H-pyrazol-4-yl)benzonitrile]",< 100 nM
5,"CN(c1cnc(-c2ccc(-n3nccn3)cc2O)cn1)C1CC(C)(C)NC(C)(C)C1 [Cpd 61, 2-{5-[methyl(2,2,6,6-tetramethylpiperidin-4-yl)amino]pyrazin-2-yl}-5-(2H-1,2,3-triazol-2-yl)phenol]",100 to 500 nM
6,"Oc1cc(-c2cn[nH]c2)ccc1-c1cnc(NC2CCNCC2)cn1 [Cpd 8, 2-{5-[(piperidin-4-yl)amino]pyrazin-2-yl}-5-(1H-pyrazol-4-yl)phenol]",1000 to 3000 nM
7,"CC1(C)CC(Nc2cnc(-c3ccc(-n4cc(F)cn4)cc3O)cn2)CC(C)(C)N1 [Cpd 59, 5-(4-fluoro-1H-pyrazol-1-yl)-2-{5-[(2,2,6,6-tetramethylpiperidin-4-yl)amino]pyrazin-2-yl}phenol]",1000 to 3000 nM
8,"CN(c1cnc(-c2ccc(-c3cn[nH]c3)c(F)c2)cn1)C1CC(C)(C)NC(C)(C)C1 [Cpd 16, 5-[3-fluoro-4-(1H-pyrazol-4-yl)phenyl]-N-methyl-N-(2,2,6,6-tetramethylpiperidin-4-yl)pyrazin-2-amine]",500 to 1000 nM
9,"CN(c1cnc(-c2cc(F)c(-c3cn[nH]c3)cc2F)cn1)C1CC(C)(C)NC(C)(C)C1 [Cpd 15, 5-[2,5-difluoro-4-(1H-pyrazol-4-yl)phenyl]-N-methyl-N-(2,2,6,6-tetramethylpiperidin-4-yl)pyrazin-2-amine]",< 100 nM
10,"Oc1cc(-c2cn[nH]c2)ccc1-c1cnc(OC2CCNCC2)cn1 [Cpd 7, 2-{5-[(piperidin-4-yl)oxy]pyrazin-2-yl}-5-(1H-pyrazol-4-yl)phenol]",1000 to 3000 nM
11,"CC1(C)CC(Nc2cnc(-c3ccc(-c4ncccn4)cc3O)cn2)CC(C)(C)N1 [Cpd 47, 5-(pyrimidin-2-yl)-2-{5-[(2,2,6,6-tetramethylpiperidin-4-yl)amino]pyrazin-2-yl} phenol]",1000 to 3000 nM
12,"CC1(C)CC(Nc2cnc(-c3ccc(-c4cn5ccnc5cn4)cc3O)cn2)CC(C)(C)N1 [Cpd 53, 5-(imidazo[1,2-a]pyrazin-6-yl)-2-{5-[(2,2,6,6-tetramethylpiperidin-4-yl)amino]pyrazin-2-yl}phenol]",100 to 500 nM
13,"Cc1cc(-c2cnc(N(C)C3CC(C)(C)NC(C)(C)C3)cn2)c(F)cc1-c1cn[nH]c1 [Cpd 11, 5-[2-fluoro-5-methyl-4-(1H-pyrazol-4-yl)phenyl]-N-methyl-N-(2,2,6,6-tetramethylpiperidin-4-yl)pyrazin-2-amine]",100 to 500 nM
14,"Cc1[nH]ncc1-c1ccc(-c2cnc(N(C)C3CC(C)(C)NC(C)(C)C3)cn2)c(O)c1 [Cpd 12, 5-(5-methyl-1H-pyrazol-4-yl)-2-{5-[methyl(2,2,6,6-tetramethylpiperidin-4-yl)amino]pyrazin-2-yl}phenol]",500 to 1000 nM
15,"Cn1cc(-c2ccc(-c3cnc(NC4CC(C)(C)NC(C)(C)C4)cn3)c(O)c2)cn1 [Cpd 54, 5-(1-methyl-1H-pyrazol-4-yl)-2-{5-[(2,2,6,6-tetramethylpiperidin-4-yl)amino]pyrazin-2-yl}phenol]",< 100 nM
16,"CC1(C)CC(Nc2cnc(-c3ccc(-c4cc[nH]n4)cc3O)cn2)CC(C)(C)N1 [Cpd 58, 5-(1H-pyrazol-3-yl)-2-{5-[(2,2,6,6-tetramethylpiperidin-4-yl)amino]pyrazin-2-yl}phenol]",100 to 500 nM
